Laboratory results reported in patent US8791267B2, “Biaryl PDE4 inhibitors for treating inflammatory, cardiovascular and CNS disorders” (Decode Genetics EHF, priority 2007, dated 2014).

Key:
PDE4B = PDE4B (Homo sapiens, UniProt Q07343); experiment: In-vitro assay for PDE4 enzymes, real-time enzyme-coupled spectrophotometric assay, PDE4B Activity (Table 10); type: biochemical; details: human PDE4B (hPDE4B), enzyme-coupled spectrophotometric assay; read-out: PDE4B Activity, hPDE4B
PDE4 = PDE4 (Homo sapiens, UniProt Q08499); experiment: In-vitro assay for PDE4 enzymes, real-time enzyme-coupled spectrophotometric assay (Table 9); type: biochemical; details: human PDE4D; activity class, Table 9; read-out: hPDE4D
PDE4, sequence (Q08499 whole entry): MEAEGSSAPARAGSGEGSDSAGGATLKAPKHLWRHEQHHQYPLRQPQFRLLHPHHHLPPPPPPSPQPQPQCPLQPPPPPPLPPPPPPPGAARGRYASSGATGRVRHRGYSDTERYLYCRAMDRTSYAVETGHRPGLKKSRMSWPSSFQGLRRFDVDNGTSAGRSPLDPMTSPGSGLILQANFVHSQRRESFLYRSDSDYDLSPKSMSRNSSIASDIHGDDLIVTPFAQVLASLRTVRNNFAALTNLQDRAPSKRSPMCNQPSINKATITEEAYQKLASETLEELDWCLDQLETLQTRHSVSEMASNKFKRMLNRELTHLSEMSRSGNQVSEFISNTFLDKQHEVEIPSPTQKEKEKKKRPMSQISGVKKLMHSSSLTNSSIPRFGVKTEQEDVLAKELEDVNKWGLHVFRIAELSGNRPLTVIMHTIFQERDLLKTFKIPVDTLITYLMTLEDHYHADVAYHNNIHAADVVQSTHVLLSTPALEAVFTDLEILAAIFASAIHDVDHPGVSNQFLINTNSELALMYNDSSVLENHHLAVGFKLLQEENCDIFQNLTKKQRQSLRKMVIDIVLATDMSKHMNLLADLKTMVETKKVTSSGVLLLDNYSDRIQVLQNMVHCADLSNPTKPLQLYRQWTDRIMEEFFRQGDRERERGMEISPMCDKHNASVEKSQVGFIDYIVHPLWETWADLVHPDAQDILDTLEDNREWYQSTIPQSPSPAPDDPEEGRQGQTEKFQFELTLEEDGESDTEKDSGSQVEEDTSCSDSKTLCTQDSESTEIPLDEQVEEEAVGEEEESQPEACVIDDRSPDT

PDE4B, sequence (Q07343 whole entry): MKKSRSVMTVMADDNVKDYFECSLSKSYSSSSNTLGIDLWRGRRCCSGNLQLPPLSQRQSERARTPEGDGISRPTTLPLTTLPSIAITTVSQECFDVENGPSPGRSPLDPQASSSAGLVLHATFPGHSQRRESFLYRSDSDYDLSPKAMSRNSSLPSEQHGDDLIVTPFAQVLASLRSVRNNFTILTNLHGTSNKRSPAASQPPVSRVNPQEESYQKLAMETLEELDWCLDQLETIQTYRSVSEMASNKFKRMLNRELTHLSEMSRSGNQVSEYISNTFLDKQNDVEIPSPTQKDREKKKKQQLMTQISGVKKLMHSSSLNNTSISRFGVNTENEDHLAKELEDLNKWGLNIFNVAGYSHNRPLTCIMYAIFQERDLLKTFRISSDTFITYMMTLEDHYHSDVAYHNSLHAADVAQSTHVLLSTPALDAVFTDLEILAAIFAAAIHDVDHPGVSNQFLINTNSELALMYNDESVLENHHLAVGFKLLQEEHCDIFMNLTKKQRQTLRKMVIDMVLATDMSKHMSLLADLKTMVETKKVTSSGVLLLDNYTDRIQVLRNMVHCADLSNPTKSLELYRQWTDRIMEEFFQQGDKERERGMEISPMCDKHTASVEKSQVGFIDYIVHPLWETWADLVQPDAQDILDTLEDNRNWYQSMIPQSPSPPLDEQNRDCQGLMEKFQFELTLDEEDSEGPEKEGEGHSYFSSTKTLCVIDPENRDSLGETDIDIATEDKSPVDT

Row | IC50 (PDE4B) | IC50 (PDE4) | SMILES
1 | < 5 µM | < 5 µM | COc1ccc(Cc2ccc(C#N)cc2)c(O)c1-c1cccc([N+](=O)[O-])c1 [P-138, 4-(2-Hydroxy-6-methoxy-3′-nitro-biphenyl-3-ylmethyl)-benzonitrile]
2 | < 5 µM | < 5 µM | COc1ccc(Cc2ccc(F)cc2)cc1-c1cccc(C(C)=O)c1 [P-140, 1-[5′-(4-Fluoro-benzyl)-2′-methoxy-biphenyl-3-yl]-ethanone]
3 | < 5 µM | < 5 µM | COc1ccc(Cc2ccc(O)cc2)cc1-c1cccc([N+](=O)[O-])c1 [P-142]
4 | < 5 µM | < 5 µM | COc1ccc(Cc2ccc(NC(=O)CNC(=O)OC(C)(C)C)cc2)cc1-c1cccc([N+](=O)[O-])c1 [P-143]
5 | < 5 µM | < 5 µM | COc1ccc(Cc2ccc(NC(=O)CN(C)C)cc2)cc1-c1cccc([N+](=O)[O-])c1 [P-144]
6 | < 5 µM | < 5 µM | COc1ccc(Cc2ccc(NC(=O)CN)cc2)cc1-c1cccc([N+](=O)[O-])c1 [P-145]
7 | 5 to 20 µM | < 5 µM | COc1ccc(Cc2ccc(NC(=O)CCN3CCCCC3)cc2)cc1-c1cccc([N+](=O)[O-])c1 [P-146]
8 | < 5 µM | < 5 µM | COc1ccc(Cc2ccc(NC(=O)CN(C)C)cc2)c(F)c1-c1cccc([N+](=O)[O-])c1 [P-147]
9 | < 5 µM | < 5 µM | COc1ccc(Cc2ccc(CN)cc2)c(F)c1-c1cccc([N+](=O)[O-])c1 [P-148]
10 | 5 to 20 µM | 5 to 20 µM | COc1ccc(Cc2ccc(OCCN(C)C)nc2)c(O)c1-c1cccc([N+](=O)[O-])c1 [P-150]
11 | < 5 µM | < 5 µM | COc1ccc(Cc2ccc(Cl)nc2)c(F)c1-c1cccc([N+](=O)[O-])c1 [P-152]
12 | 5 to 20 µM | < 5 µM | COc1ccc(Cn2cncc2CO)cc1-c1cccc([N+](=O)[O-])c1 [P-153, [3-(6-Methoxy-3′-nitro-biphenyl-3-ylmethyl)-3H-imidazol-4-yl]-methanol]
13 | < 5 µM | < 5 µM | COc1ccc(Cn2cnc(CO)c2)cc1-c1cccc([N+](=O)[O-])c1 [P-154, [1-(6-Methoxy-3′-nitro-biphenyl-3-ylmethyl)-1H-imidazol-4-yl]-methanol]
14 | 5 to 20 µM | 20 to 40 µM | COc1ccc(CN2C(=O)CC[C@H]2CN)cc1-c1cccc([N+](=O)[O-])c1 [P-155, (S)-5-Aminomethyl-1-(6-methoxy-3′-nitro-biphenyl-3-ylmethyl)-pyrrolidin-2-one]
15 | < 5 µM | < 5 µM | COc1ccc(CN2C(=O)CC[C@@H]2CN)cc1-c1cccc([N+](=O)[O-])c1 [P-156, (R)-5-Aminomethyl-1-(6-methoxy-3′-nitro-biphenyl-3-ylmethyl)-pyrrolidin-2-one]
16 | < 5 µM | < 5 µM | COc1ccc(Cc2ccc(NC(=O)CCN)cc2)cc1-c1cccc([N+](=O)[O-])c1 [P-159]
17 | 5 to 20 µM | 5 to 20 µM | COc1ccc(Cc2cccc(CN)c2)cc1-c1cccc([N+](=O)[O-])c1 [P-161, 3-(6-Methoxy-3′-nitro-biphenyl-3-ylmethyl)-benzylamine]
18 | 5 to 20 µM | 5 to 20 µM | COc1ccc(CN2CCCC2=O)cc1-c1ccccc1 [P-162, 1-(6-Methoxy-biphenyl-3-ylmethyl)-pyrrolidin-2-one]
19 | 5 to 20 µM | < 5 µM | COc1ccc(Cc2ccc(OCCN(C)C)cc2)cc1-c1cccc([N+](=O)[O-])c1 [P-164]
20 | 5 to 20 µM | < 5 µM | COc1ccc(Cc2ccc(OCCN3CCCC3)cc2)cc1-c1cccc([N+](=O)[O-])c1 [P-165]
21 | < 5 µM | < 5 µM | COc1ccc(Cc2ccc(OCCN3CCCCC3)cc2)cc1-c1cccc([N+](=O)[O-])c1 [P-166]
22 | < 5 µM | < 5 µM | COc1ccc(Cc2ccc(NC(C)=O)cc2)c(F)c1-c1cccc(Br)c1 [P-168]
23 | < 5 µM | < 5 µM | COc1ccc(Cc2ccc(OCCN3CCOCC3)cc2)cc1-c1cccc([N+](=O)[O-])c1 [P-171]
24 | < 5 µM | < 5 µM | COc1ccc(CN2CCCC2=O)cc1-c1cccc(C(C)=O)c1 [P-172, 1-(3′-Acetyl-6-methoxy-biphenyl-3-ylmethyl)-pyrrolidin-2-one]
25 | < 5 µM | < 5 µM | COc1ccc(Cc2ccc(-n3cccn3)cc2)c(O)c1-c1cccc([N+](=O)[O-])c1 [P-173, 6-Methoxy-3′-nitro-3-(4-pyrazol-1-yl-benzyl)-biphenyl-2-ol]
26 | < 5 µM | < 5 µM | COc1ccc(Cc2c(C)noc2C)c(O)c1-c1cccc([N+](=O)[O-])c1 [P-174]

Row | IC50 (PDE4B) | IC50 (PDE4) | SMILES
27 | < 5 µM | < 5 µM | COc1ccc(Cc2ccc(CNC(=O)CN(C)C)cc2)c(F)c1-c1cccc([N+](=O)[O-])c1 [P-175]
28 | < 5 µM | < 5 µM | COc1ccc(Cc2ccc(F)cc2)c(N)c1-c1cccc([N+](=O)[O-])c1 [P-176, 3-(4-fluoro-benzyl)-6-methoxy-3′-nitro-biphenyl-2-ylamine]
29 | 5 to 20 µM | 5 to 20 µM | COc1ccc(Cn2ccccc2=O)cc1-c1cccc(C(C)=O)c1 [P-179, 1-(3′-Acetyl-6-methoxy-biphenyl-3-ylmethyl)-1H-pyridin-2-one]
30 | < 5 µM | < 5 µM | COc1ccc(Cc2ccc(C=O)cc2)c(O)c1-c1cccc([N+](=O)[O-])c1 [P-180, 4-(2-Hydroxy-6-methoxy-3′-nitro-biphenyl-3-ylmethyl)-benzaldehyde]
31 | < 5 µM | < 5 µM | COc1ccc(Cc2ccc(NC(N)=O)cc2)c(F)c1-c1cccc([N+](=O)[O-])c1 [P-181]
32 | 21 to 40 µM | 5 to 20 µM | COc1ccc(Cc2cccnc2Cl)c(O)c1-c1cccc(N)c1 [P-182]
33 | < 5 µM | < 5 µM | COc1ccc(Cc2ccc(CO)cc2)c(O)c1-c1cccc([N+](=O)[O-])c1 [P-183, 3-(4-Hydroxymethyl-benzyl)-6-methoxy-3′-nitro-biphenyl-2-ol]
34 | 5 to 20 µM | 5 to 20 µM | COc1cccc(-c2cc(CN3CCCC3=O)ccc2OC)c1 [P-184, 1-(6,3′-Dimethoxy-biphenyl-3-ylmethyl)-pyrrolidin-2-one]
35 | 21 to 40 µM | 5 to 20 µM | COc1ccc(Cc2ccc[nH]c2=O)c(O)c1-c1cccc(N)c1 [P-185]
36 | 21 to 40 µM | 20 to 40 µM | COc1ccc(CN2CCCC2=O)cc1-c1cccc(-c2nnco2)c1 [P-186]
37 | < 5 µM | < 5 µM | COc1ccc(Cc2ccc(F)cc2)c(F)c1-c1cccc(Cl)c1 [P-187]
38 | < 5 µM | < 5 µM | COc1ccc(CN2CCCCC2=O)cc1-c1cccc([N+](=O)[O-])c1 [P-188, 1-(6-Methoxy-3′-nitro-biphenyl-3-ylmethyl)-piperidin-2-one]
39 | < 5 µM | < 5 µM | COc1ccc(Cc2ccc(NC(C)=O)cc2)c(O)c1-c1cccc([N+](=O)[O-])c1 [P-190, N-[4-(2-Hydroxy-6-methoxy-3′-nitro-biphenyl-3-ylmethyl)-phenyl]-acetamide]
40 | 5 to 20 µM | 5 to 20 µM | COc1ccc(C[S+]([O-])c2ccc(F)cc2)cc1-c1cccc([N+](=O)[O-])c1 (centres unmarked) [P-192, 5-(4-Fluoro-benzenesulfinylmethyl)-2-methoxy-3′-nitro-biphenyl]
41 | < 5 µM | < 5 µM | COc1ccc(Oc2ccc(F)cc2)cc1-c1cccc([N+](=O)[O-])c1 [P-193, 5-(4-Fluoro-phenoxy)-2-methoxy-3′-nitrobiphenyl]
42 | 21 to 40 µM | 5 to 20 µM | COc1ccc(Cn2cc(C#N)ccc2=O)cc1-c1cccc([N+](=O)[O-])c1 [P-195, 1-(6-Methoxy-3′-nitro-biphenyl-3-ylmethyl)-6-oxo-1,6-dihydro-pyridine-3-carbonitrile]
43 | 5 to 20 µM | < 5 µM | COc1ccc(Cn2ccc(C#N)cc2=O)cc1-c1cccc([N+](=O)[O-])c1 [P-196, 1-(6-Methoxy-3′-nitro-biphenyl-3-ylmethyl)-2-oxo-1,2-dihydro-pyridine-4-carbonitrile]
44 | < 5 µM | < 5 µM | COc1ccc(COc2ccc(N)cc2)c(F)c1-c1cccc(Br)c1 [P-199]
45 | < 5 µM | < 5 µM | COc1ccc(Cc2ccc(NS(C)(=O)=O)cc2)c(F)c1-c1cccc(Br)c1 [P-200]
46 | 21 to 40 µM | 5 to 20 µM | Cn1nccc1Cc1ccc(OC(F)F)c(-c2ccc3c(c2)OCO3)c1 [P-201, 5-(3-Benzo[1,3]dioxol-5-yl-4-difluoromethoxy-benzyl)-1-methyl-1H-pyrazole]
47 | < 5 µM | 5 to 20 µM | COc1ccc(Cn2ccc(C(N)=O)cc2=O)cc1-c1cccc([N+](=O)[O-])c1 [P-207, 1-(6-Methoxy-3′-nitro-biphenyl-3-ylmethyl)-2-oxo-1,2-dihydro-pyridine-4-carboxylic acid amide]
48 | 5 to 20 µM | 5 to 20 µM | COc1ccc(Cn2cc(NC(N)=O)ccc2=O)cc1-c1cccc([N+](=O)[O-])c1 [P-208, [1-(6-Methoxy-3′-nitro-biphenyl-3-ylmethyl)-6-oxo-1,6-dihydro-pyridin-3-yl]-urea]
49 | < 5 µM | 5 to 20 µM | COc1ccc(Cn2ccccc2=O)cc1-c1cccc(Cl)c1 [P-209, 1-(3′-Chloro-6-methoxy-biphenyl-3-ylmethyl)-1H-pyridin-2-one]
50 | 5 to 20 µM | 5 to 20 µM | COc1ccc(Cn2cc(NC(C)=O)ccc2=O)cc1-c1cccc([N+](=O)[O-])c1 [P-211, N-[1-(6-Methoxy-3′-nitro-biphenyl-3-ylmethyl)-6-oxo-1,6-dihydro-pyridin-3-yl]-acetamide]
51 | 5 to 20 µM | 5 to 20 µM | COc1ccc(Cn2cc(C(N)=O)ccc2=O)cc1-c1cccc([N+](=O)[O-])c1 [P-212, 1-(6-Methoxy-3′-nitro-biphenyl-3-ylmethyl)-6-oxo-1,6-dihydro-pyridine-3-carboxylic acid amide]
52 | < 5 µM | 5 to 20 µM | COc1ccc(Cn2ccc(CN)cc2=O)cc1-c1cccc([N+](=O)[O-])c1 [P-213, 4-Aminomethyl-1-(6-methoxy-3′-nitro-biphenyl-3-ylmethyl)-1H-pyridin-2-one]
